The text below walks through data of paper PMC10492809, “A Bischler-Napieralski and homo-Mannich sequence enables diversified syntheses of sarpagine alkaloids and analogues” (Nature Communications, 2023).

What all share (format): cell-based
One data set relates to GPX4. In words: Western blotting, GPX4 protein expression. The following applies: 15ai 0, 2, 4 and 8 μM, 24 h. On the procedure: (§1) Cells on 6-well plates were rinsed twice with cold PBS and lysed in RIPA lysis buffer (50 mM Tris (pH 7.4), 150 mM NaCl, 1% Triton X-100, 1% deoxycholicphenyl methylsulfonyl fluoride, 5.0 mM sodium pyrophosphate, […] leupeptin, 0.1 mM phenylmethylsulfonyl fluoride, and1 mM DTT) containing a protease inhibitor (PMSF) mixture at 1:100 dilution on ice for 30 min. The insoluble components of cell lysates were removed by centrifugation (4 °C, 12000 × g, 10 min), and protein concentrations were measured using a Pierce BCA protein assay kit. Proteins were separated by sodium dodecyl sulfate-polyacrylamide gel electrophoresis (SDS-PAGE) and transferred onto polyvinylidene difluoride (PVDF) membranes. Membranes were blocked using 5% skim milk in TBST and then incubated with diluted indicated primary antibodies: anti-GPX4 (1:1000 dilution, Proteintech, Cat No: 30388-1-AP), anti-SLC7A11 (1:1000 dilution, ABclonal, Cat No: A13685), anti-GAPDH (1:1000 dilution, Wanlei, Cat No: WL01114) at 4 °C with gentle shaking overnight. After washing five times (5 min each) with TBST, membranes were incubated with the HRP conjugated goat anti rabbit IgG (H + L) (1:5000 dilution, Wanlei, Cat No: WLA023) for 1 h at rt. Immunoreactive bands were visualized using an ECL detection kit (Wanlei, Cat No: WLA006) following the manufacturer’s instruction on the ChemiDoc system (BioRad, Shanghai, China).
(Immunoblotting shows a protein as a band on a membrane.)

Another data set deals with MIA PaCa-2. In words: MTT cell viability assay, MIA PaCa-2. The method in brief:
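IC50 values come from triplicate wells per concentration, repeated in three independent experiments. Cultures were kept at 37 °C, 5% CO2, in serum-supplemented medium, exposed to compounds for 72 h, then assessed by MTT conversion measured at 490 nm.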

The test system of a further data set is HCT 116. The data set can be described thus: MTT cell viability assay, HCT 116. The method in brief: (§2)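 Antiproliferative activity was measured by a colorimetric MTT assay after 72 h of compound treatment, with cells plated at 3000 per well the day before. Read-out was OD490 of DMSO-dissolved formazan, and IC50 values were averaged over three independent experiments.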
A general note: Tetrazolium assays rely on reduction of a dye to a coloured formazan, in cell work by metabolically active cells.

A short description of data set [1]: MTT cytotoxicity towards normal cells, BEAS-2B. As to conditions: human. The method in brief: as §2
In another data set the test system is Hela. The data set can be described thus: MTT cell viability assay, Hela. The method in brief:
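Here the normal lung epithelial BEAS-2B line and the tumour lines were treated alike: overnight-adhered cells (3000/well) received graded compound doses for 72 h, followed by 4 h MTT at 37 °C and OD490 reading after DMSO.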

For the next data set, the system named is SLC7A11. In words: Western blotting, SLC7A11 protein expression. The following applies: 15ai 0, 2, 4 and 8 μM, 24 h. On the procedure: as §1
The subject of a further data set is MCF-7. In words: MTT cell viability assay, MCF-7. The method in brief:
as §2

In a further data set the test system is MDA-MB-231. The data set can be described thus: MTT cell viability assay, MDA-MB-231. The method in brief:
as §2

SMILES strings stand for the structures. Where “and” joins values, the source holds several entries; their conditions need not be identical. Equal values may be shown once. Read-outs that look alike come from different tables or passages of the source. Where only a bound is given, the exact number is not on record here.

As usually defined, the IC50 is the concentration at which inhibition is half-maximal. As a reminder, the CC50 is the concentration giving 50% cytotoxicity. Take `C=C=C1CN2[C@H]3C[C@H]1[C@H](C=O)[C@@H]2Cc1c3n(S(=O)(=O)c2ccc(C)cc2)c2ccc(Cl)cc12` [Compound 15ai]: in the data set with GPX4, the “protein level of GPX4” value is reported as “did not affect the protein level of GPX4”. Also, the IC50 is 8.32 µM with MIA PaCa-2 (Homo sapiens, MIA PaCa-2, 72 h, MTT, 72 h, mean of at least three independent experiments, read-out: IC50 MIA PaCa-2); 7.92 µM with MIA PaCa-2 (Homo sapiens, MIA PaCa-2, source data sheet, single values of three experiments, read-out: MTT IC50 MIA PaCa-2); 10 µM and 7.05 µM in the data set on MIA PaCa-2 (source data sheet, single values of three experiments, read-out: MTT IC50 MIA PaCa-2); 4.78 µM in the data set on HCT 116 (Homo sapiens, HCT-116, 72 h, MTT, 72 h, mean of at least three independent experiments, read-out: IC50 HCT 116); 6.28 µM with HCT 116 (Homo sapiens, HCT-116, source data sheet, single values of three experiments, read-out: MTT IC50 HCT-116); 3.83 µM and 4.24 µM with HCT 116 (source data sheet, single values of three experiments, read-out: MTT IC50 HCT-116). Moreover, the IC50 in the data set with Hela (Homo sapiens, HeLa, 72 h, MTT, 72 h, mean of at least three independent experiments, read-out: IC50 Hela) was 2.95 µM; in the data set with Hela (Homo sapiens, HeLa, source data sheet, single values of three experiments, read-out: MTT IC50 Hela) it was 3.02 µM; in the data set on Hela (source data sheet, single values of three experiments, read-out: MTT IC50 Hela), 2.02 µM and 3.81 µM; in the data set with MCF-7 (Homo sapiens, MCF7, 72 h, MTT, 72 h, mean of at least three independent experiments, read-out: IC50 MCF-7), 13.9 µM; in the data set on MCF-7 (Homo sapiens, MCF7, source data sheet, single values of three experiments, read-out: MTT IC50 MCF-7), 16 µM; in the data set on MCF-7 (source data sheet, single values of three experiments, read-out: MTT IC50 MCF-7), 12.8 µM and 12.9 µM. Besides, the IC50 in the data set with MDA-MB-231 (Homo sapiens, MDA-MB-231, 72 h, MTT, 72 h, mean of at least three independent experiments, read-out: IC50 MDA-MB-231) was 2.03 µM; in the data set with MDA-MB-231 (Homo sapiens, MDA-MB-231, source data sheet, single values of three experiments, read-out: MTT IC50 MDA-MB-231), 1.68 µM; in the data set on MDA-MB-231 (source data sheet, single values of three experiments, read-out: MTT IC50 MDA-MB-231), 2.11 µM and 2.31 µM. The molecule also returned a half-inhibitory concentration (IC50) at 72 h in data set [1] (BEAS-2B lung epithelial cells (normal cells), source data sheet, single values of three experiments) greater than 100 µM. The CC50 at 72 h in data set [1] (BEAS-2B lung epithelial cells, MTT, 72 h, cytotoxicity towards normal cells, mean of at least three independent experiments) was greater than 100 µM. Moreover, the SLC7A11 level entry in the data set with SLC7A11 is recorded as “dose-dependently decreased”.
